This note sets out measurements from PMC12155470, “Novel Tetraene Macrodiolides Are Effective Inducers of Mitochondrial Apoptosis in Jurkat Cells” (International Journal of Molecular Sciences, 2025).

For data set [1], the system named is Jurkat cells. The experiment in a line: Cytochrome C assay (flow cytometry). It counts as cell-based, Human. Particulars: compound at CC50 concentration, 6 h (Figure 4; method says four hours). The source says: The quantification of cytochrome c release from the mitochondria in apoptotic cells was used to detect the mitochondrial pathway of apoptosis in the cells by flow cytometry. This study employed a direct labeling method that utilized an anti-cytochrome cFITC antibody, an anti-IgG1-FITC isotype control, and optimized fixation, permeabilization, and blocking buffers to detect cytochrome c by flow cytometry (Luminex®, Austin, TX, USA). […] The Jurkat cells were exposed to test substances at concentrations corresponding to their 24-h CC50 in these cells for a period of four hours. Thereafter, analysis by flow cytometry (NovoCyte Flow Cytometry™ Agilent, San Diego, CA, USA) was conducted. The acquired data were processed using NovoExpress® software (version 1.6.2) (ACEA (Agilent, Santa Clara, CA, USA)).
Figure 4 Detection of cytochrome c in Jurkat cells stained with a FlowCellect Cytochrome c Kit. The control compound, carbonyl cyanide m-chlorophenylhydrazone (CCCP), was administered at a concentration equal to its CC50 value. Compound 9d was added to the sample cells at a CC50 concentration (see the table of cell viability). The cells were incubated for 6 h. We compared the numerical values to determine the reliability of the differences observed between the control sample and the samples treated with the synthesized substances. […]

In a further data set the test system is Jurkat. The experiment in a line: In vitro cytotoxic activity, 7-AAD flow cytometry, Jurkat. It is filed as cell-based, Human. Particulars: 24 h incubation, mean ± SD, triplicate. The text has this:
(§1) The investigation focused on the assessment of the synthesized compounds’ toxicities, utilizing a panel of six diverse cell lines. The selection of cells was based on the specific features of their metabolism, namely, Jurkat, K562, U937, and HL60 cells are suspension cultures of oncohematologic origin, and HEK293 is a conditionally normal line transformed by adenovirus and often used as control cells along with fibroblasts. The normal fibroblast line (Wi-38) utilized in the experiment was diploid and was obtained from the lung tissue of an aborted fetus. The total cytotoxic activity of 16 compounds was studied using flow cytometry.
(§2) Human cancer cell lines, including Jurkat, K562, U937, HL60, and fibroblasts (Wi-38), were obtained from the European Authentic Cell Culture Collection and further cultured according to established standard protocols using sterile methods. The cells were cultivated in RPMI 1640 (for Jurkat and K562) and DMEM (for Wi-38 and HEK293) media (Gibco, Billings, MT, USA), with the addition of […] glutamine, 10% FBS (Sigma, Kanagawa, Japan), and 100 U/mL penicillin–streptomycin (Sigma). All cell types were cultivated in a humidified atmosphere containing 5% CO₂ at a temperature of 37 °C. Subculturing was performed at two- to three-day intervals. The cells were subsequently seeded into 24-well plates at a density of 5 × 10^4 cells per well and incubated overnight. Subsequent subculturing was then performed at two-day intervals, with a seeding density of 1 × 10^5 cells per 24-well plate, using RPMI medium with 10% FBS [49].
(§3) The dissolution of the compounds tested was initially performed in dimethyl sulfoxide (DMSO) with an initial solution of 100 mM in 10% DMSO. Subsequently, the solution was diluted in a complete culture medium, namely, Dulbecco’s medium, modified Eagle’s medium (DMEM), or Roswell Park Memorial Institute medium (RPMI). Substances were added at concentrations of 10, 1, 100, 10, 1, and 0.1 μM on the day after seeding and incubated for 24 h. Following this, the cells were washed with a phosphate-buffered saline (PBS) solution and stained with 7AAD dye, as per the manufacturer’s protocol for flow cytometry. The CC50 value, which characterizes the parameters of toxicity (i.e., the concentration of the compound required for 50% inhibition of cell viability in vitro), was calculated. logC versus % inhibition was plotted, and statistical data processing was performed using Excel and GraphPad Prism v.8.0.2 (San Diego, CA, USA, 2019). The data obtained from three independent experiments were expressed as the mean of three measurements for each concentration, with the standard deviation indicated as well. These values were then relative to the control values (0.1% DMSO), which were taken as 100%.
(§4) 7-AAD (7-aminoactinomycin D) dye (eBioscience™, San Diego, CA, USA) was used to assess cell viability. Following incubation with the test compounds, the cells were harvested, washed with a phosphate–salt buffer (PBS), and subjected to centrifugation at 400× g for five minutes. The cell sediment was resuspended in 200 μL of staining buffer for flow cytometry (PBS without calcium and magnesium, 2.5% FBS) and stained with a 1 mM 7-AAD dye solution for 15 min in the dark at room temperature. Subsequently, all samples, including experimental and control groups, were analyzed using a BD FACSAria™ III Cell Sorter flow cytometer (Milpitas, CA, USA).
A general note: In flow cytometry, cells or beads pass a laser one at a time.

A further data set has as its system K562. Briefly: In vitro cytotoxic activity, 7-AAD flow cytometry, K562. It counts as cell-based, Human. As to conditions: 24 h incubation, mean ± SD, triplicate.
Text: as §1, §2, §3, §4

In a further data set the test system is U937. The experiment in a line: In vitro cytotoxic activity, 7-AAD flow cytometry, U937. It counts as cell-based, Human. Particulars: Homo sapiens, U-937, 24 h, 24 h incubation, mean ± SD, triplicate.
Text: as §1, §2, §3, §4

A further data set relates to HL60. The experiment in a line: In vitro cytotoxic activity, 7-AAD flow cytometry, HL60. It counts as cell-based. As to conditions: Homo sapiens, HL-60, 24 h incubation, mean ± SD, triplicate.
Text: as §1, §2, §3, §4

A short description of data set [2]: In vitro cytotoxic activity, 7-AAD flow cytometry, Hek293. As to conditions: human, HEK293 cells, conditionally normal line, 24 h incubation, mean ± SD. It counts as cell-based.
Text: as §1, §2, §3, §4

A short description of data set [3]: In vitro cytotoxic activity, 7-AAD flow cytometry, normal fibroblasts. It counts as cell-based. Particulars: human, Wi-38 normal lung fibroblasts, normal fibroblasts Wi-38, 24 h incubation, mean ± SD, read-out: Fibrobl. (CC50).
Text: as §1, §2, §3, §4

Data set [4] deals with Jurkat cells. Briefly: Mitodamage assay (MitoSense Red, Annexin V-CF488A, 7-AAD). It is filed as cell-based, Human. As to conditions: compound at CC50 concentration, four hours. As to the method: To this end, MitoSense Red, a fluorescent dye that accumulates predominantly in mitochondria and responds to changes in membrane potential, was utilized. […] Two dyes commonly employed for detecting apoptosis in cells are annexin V and 7AAD. […] Therefore, the dissipation of mitochondrial membrane potential and the associated apoptosis process in Jurkat tumor cells were analyzed in response to exposure to synthesized macrodiolides. MitoSense Red, Annexin V-CF488A, and 7-AAD were used as dyes for this analysis (see Figure 3). A flow cytometry kit (FlowCellect™ MitoDamage Kit from Millipore, Hayward, CA USA) was utilized, as it facilitates a multiparametric evaluation of three markers of cell health. These markers include changes in mitochondrial potential (early apoptosis and cell stress), phosphatidylserine expression on the cell surface (late apoptosis), and membrane permeability (cell death). The method of the simultaneous detection of mitochondrial damage was performed according to the well-known technique.  Figure 3 Detection changes in mitochondrial membrane potential (ΔΨ) and coupled early and late apoptosis in Jurkat cells treated with compounds 9d, 8d, 7d, and 6d. Staurosporine and carbonyl cyanide-m-chlorophenylhydrazone were utilized as control compounds. The addition of all the tested compounds was executed at the CC50 concentration (refer to the provided table for the cytotoxicities of the synthesized compounds). The staining of cells was conducted using MitoSense Red, Annexin V-CF488A, and 7-AAD. The incubation period lasted for a duration of four hours. The presence of three *** (p < 0.001) and two asterisks ** (p < 0.005) indicates the significance of the observed differences between the values obtained in the control sample and the samples treated with the synthesized substances (comparison was performed by one-way ANOVA). All experiments were performed in triplicate.

SMILES strings stand for the structures.

Take `N#CC(C#N)=NNc1cccc(Cl)c1` [CCCP, carbonyl cyanide-m-chlorophenylhydrazone, reference compound]: the “cells releasing cytochrome c into the cytoplasm (Cytochrome loss %)” value with Jurkat cells [1] stood at 79.35%.

Turning to `O=C1CCCCC/C=C\CC/C=C\CCCCCC(=O)OCCCCCC/C=C\CC/C=C\CCCCCCO1` [Compound 9d], the cytotoxic concentration (CC50) in the data set on Jurkat worked out at 12.1 ± 1.77 nM; with Jurkat (Homo sapiens, Jurkat, 24 h), 11 nM; in the data set with K562 it was 11 ± 1.25 nM; with K562 (Homo sapiens, K562, 24 h) it was 12.1 nM; in the data set on U937, 12.2 ± 1.41 nM; in the data set with HL60, 13.5 ± 1.21 nM. The CC50 at 24 h was determined as 42.6 ± 4.31 nM in data set [2] and 64.3 ± 5.81 nM in data set [3]. Also, the “percentage of cells in apoptosis” value with Jurkat cells [4] (Jurkat, Annexin V-CF488A/7-AAD) is listed as 50.34%. Besides, the “Jurkat cells with reduced mitochondrial membrane potential (Δψ dissipation)” value in the data set with Jurkat cells [4] (MitoSense Red) amounted to 77.42%. Moreover, the “cells releasing cytochrome c into the cytoplasm (Cytochrome loss %)” value in the data set with Jurkat cells [1] is given as 68.22%.

As a reminder, the CC50 is the concentration giving 50% cytotoxicity.
